Data from US20250057803A1, “PRODUCTS OF MANUFACTURE AND METHODS FOR TREATING, AMELIORATING OR PREVENTING CORONAVIRUS INFECTION” (TOPELIA AUST LIMITED (ACN 652 771 670), priority 2020, published 2025).

How the values were obtained:
coronavirus COVID-19 [1] = format: in vivo, human
coronavirus COVID-19 [2] = format: in vivo; details: contact of a positive patient; after 4 days of treatment

SMILES | contraction of COVID-19 under prophylaxis (coronavirus COVID-19 [1]; […], group of elderly travelers on a ship with cases) | test for the virus upon arrival home after the cruise (coronavirus COVID-19 [1]; in vivo) | blood result for COVID-19 virus (coronavirus COVID-19 [2])
CCN(CC)CCCC(C)Nc1ccnc2cc(Cl)ccc12 (stereo not drawn) [chloroquine] | None contract COVID-19 coronavirus | negative | –
CCOC(=O)C1=C[C@@H](OC(CC)CC)[C@H](NC(C)=O)[C@@H](N)C1 [osteltamivir, oseltamivir] | – | – | positive
